In publication PMC7125519 (European Journal of Medicinal Chemistry, 2016):

Legend:
[1] = system: murine leukemia (L1210) cells; details: read-out: IC50 L1210; inhibit cell proliferation by 50%; cited from earlier work
[2] = system: human cervix carcinoma (HeLa) cells; details: read-out: IC50 HeLa; inhibit cell proliferation by 50%; cited from earlier work
[3] = system: immortalized human dermal microvascular endothelial cells (HMEC-1); experiment: Cytostatic activity, HMEC-1 proliferation; type: cell-based; details: HMEC-1, read-out: IC50 HMEC-1, inhibit cell proliferation by 50%
[4] = system: human T-lymphocyte (CEM) cells; details: read-out: IC50 CEM; inhibit cell proliferation by 50%; cited from earlier work
[5] = system: TK+ VZV Oka strain; type: cell-based, varicella-zoster virus
[6] = system: TK− VZV 07-1 strain; type: cell-based, varicella-zoster virus
[7] = system: human embryonic lung (HEL) cells; details: HEL cell cultures (Table 5); microscopically detectable alteration of normal cell morphology
[8] = system: Human Coronavirus (229E); type: cell-based; details: read-out: Antiviral activity EC50 Human Coronavirus (229E)

Molecule: CCOP(=O)(OCC)[C@H]1C[C@@H](Cn2c(=O)n(C(=O)c3ccccc3)c(=O)c3ccccc32)ON1C [cis-12a]
- IC50 [1]: > 200 µM
- IC50 [2]: > 200 µM

Molecule: CCOP(=O)(OCC)[C@@H]1C[C@@H](Cn2c(=O)n(C(=O)c3ccccc3)c(=O)c3ccccc32)ON1Cc1ccccc1 (relative stereo) [trans-13a, Diethyl trans-{5-[(3-benzoyl-2,4-dioxo-3,4-dihydroquinazolin-1(2H)-yl)methyl]-2-benzylisoxazolidin-3-yl}phosphonate]
- IC50 [3]: > 250 µM

Molecule: CCOP(=O)(OCC)[C@@H]1C[C@@H](Cn2c(=O)n(C(=O)c3ccccc3)c(=O)c3ccccc32)ON1C [trans-12a]
- IC50 [1]: ≥ 159 µM

Molecule: CCOP(=O)(OCC)[C@H]1C[C@@H](Cn2ccc(=O)n(C(=O)c3ccccc3)c2=O)ON1C [cis-11a]
- IC50 [1]: > 200 µM
- IC50 [4]: > 200 µM
- IC50 [2]: > 200 µM

Molecule: CCOP(=O)(OCC)C1CC(Cn2c(=O)n(Cc3ccc(F)cc3)c(=O)c3ccccc32)ON1Cc1ccccc1 (stereo not drawn) [trans-15d/cis-15d (95:5)]
- fold less active against the TK+ virus compared to acyclovir [5]: 4–6 fold
- fold more active against the TK– strain compared to acyclovir [6]: 10–14 fold

Molecule: Nc1nc2c(ncn2COCCO)c(=O)[nH]1 [Acyclovir]
- Minimum cytotoxic concentration [7]: >250 µM

Molecule: Nc1nc(O)c2ncn(COC(CO)CO)c2n1 [Ganciclovir]
- Minimum cytotoxic concentration [7]: >100 µM

Molecule: Cc1cn([C@H]2C[C@H](F)[C@@H](CO)O2)c(=O)[nH]c1=O [Alovudine]
- Minimum cytotoxic concentration [7]: >250 µM

Molecule: CCOP(=O)(OCC)[C@@H]1C[C@@H](Cn2ccc(=O)n(C(=O)c3ccccc3)c2=O)ON1C [trans-11a]
- IC50 [1]: > 200 µM
- IC50 [4]: > 200 µM
- IC50 [2]: > 200 µM

Molecule: Nc1ccn([C@H]2CC[C@@H](CO)O2)c(=O)n1 [Zalcitabine]
- Minimum cytotoxic concentration [7]: >250 µM

Molecule: CCOP(=O)(OCC)C1CC(Cn2c(=O)n(Cc3ccccc3F)c(=O)c3ccccc32)ON1Cc1ccccc1 (stereo not drawn) [cis-15b/trans-15b (87:13)]
- fold less active against the TK+ virus compared to acyclovir [5]: 4–6 fold
- fold more active against the TK– strain compared to acyclovir [6]: 10–14 fold

Molecule: CCOP(=O)(OCC)[C@@H]1C[C@@H](Cn2c(=O)n(C(=O)c3ccc(F)cc3)c(=O)c3ccccc32)ON1C (relative stereo) [trans-12d, Diethyl trans-{5-[(3-(4-fluorobenzoyl)-2,4-dioxo-3,4-dihydroquinazolin-1(2H)-yl)methyl]-2-methylisoxazolidin-3-yl}phosphonate]
- IC50 [3]: > 250 µM
- Minimum cytotoxic concentration [7]: ≥100 ± 0 µM

Molecule: NC(=O)c1ncn([C@@H]2O[C@H](CO)[C@@H](O)[C@H]2O)n1 [Ribavirin]
- Minimum cytotoxic concentration [7]: ≥250 µM

Molecule: Nc1ccn(C[C@@H](CO)OCP(=O)(O)O)c(=O)n1.O.O [Cidofovir]
- Minimum cytotoxic concentration [7]: >250 µM

B1: UDA: Urtica dioica agglutinin (UDA), reference compound (protein, UniProt P11218 24-372, looked up)
Lectin/endochitinase 1: QRCGSQGGGGTCPALWCCSIWGWCGDSEPYCGRTCENKCWSGERSDHRCGAAVGNPPCGQDRCCSVHGWCGGGNDYCSGSKCQYRCSSSVRGPRVALSGNSTANSIGNVVVTEPLFDQMFSHRKDCPSQGFYSYHSFLVAAESFPAFGTIGDVATRKREVAAFLAHISQATSGERSDVENPHAWGLCHINTTTVTENDFCTSSDWPCAAGKKYSPRGPIQLTHNFNYGLAGQAIGEDLIQNPDLVEKDPIISFKTALWFWMSQHDNKPSCHDIVLNANSAANRIPNKGVIGNIISRAFGHDDFAVRSSSIGFYKRYCDMLGVSYGHDLKYWFDNTPSSEFQRIQMRVAA
- EC50 [8]: 0.4 µM
- Minimum cytotoxic concentration [7]: ≥100 µM
